The nature of data set [1]: Inhibition of gamma-secretase-mediated amyloid beta-40 production in diluted 2B7 conditioned media at 0.8 uM after 5 hrs.
Data set [2] in a line: Inhibition of gamma-secretase-mediated amyloid beta-42 production in diluted 2B7 conditioned media after 5 hrs.
Data set [3] in a line: Inhibition of gamma-secretase-mediated amyloid beta-40 production in diluted 2B7 conditioned media after 5 hrs.
Data set [4] is described as follows: Inhibition of gamma-secretase-mediated amyloid beta-38 production in diluted 2B7 conditioned media after 5 hrs.
Data set [5] is described as follows: Inhibition of gamma-secretase-mediated total amyloid beta production in diluted 2B7 conditioned media at 20 uM after 5 hrs.
Data set [6] can be described thus: Drug level in CD1 mouse brain at 100 mg/kg, po after 4 hrs. The class given is ADME, organism-based. Further details: dose 100 mg/kg, route oral. The following applies: read-out: Drug uptake.
Data set [7] can be described thus: Oral bioavailability in CD1 mouse at 30 mg/kg. As to conditions: in vivo. In kind it is ADME, organism-based.
The nature of data set [8]: Half life in CD1 mouse at 1 mg/kg, iv. The following applies: in vivo. Details: dose 1 mg/kg, route intravenous. The class given is ADME, organism-based.
Data set [9] is described as follows: Half life in CD1 mouse at 30 mg/kg, po. The class given is ADME, organism-based. Further details: dose 30 mg/kg, route oral. The following applies: in vivo.
Data set [10] can be described thus: Plasma concentration in CD1 mouse at 100 mg/kg, po after 2 hrs. The class given is ADME, organism-based. Details: dose 100 mg/kg, route oral.
Data set [11] can be described thus: Plasma concentration in CD1 mouse at 100 mg/kg, po after 4 hrs. Details: dose 100 mg/kg, route oral. The class given is ADME, organism-based.
The nature of data set [12]: Volume of distribution in CD1 mouse at 1 mg/kg, iv. As to conditions: in vivo. The class given is ADME, organism-based. Further details: dose 1 mg/kg, route intravenous.
A short description of data set [13]: Plasma concentration in CD1 mouse at 100 mg/kg, po after 6 hrs. The class given is ADME, organism-based. Details: dose 100 mg/kg, route oral.
Data set [14] in a line: Clearance in CD1 mouse at 1 mg/kg, iv. The following applies: in vivo. Further details: dose 1 mg/kg, route intravenous. The class given is ADME, organism-based.
In the next data set the target is Gamma-secretase. Put plainly: Inhibition of gamma-secretase-mediated notch processing in human SUP-T1 cells after 1 hr by luminescent assay. In kind it is cell-based.
The nature of data set [15]: Inhibition of gamma-secretase-mediated amyloid beta-40 production in diluted 2B7 conditioned media at 20 uM after 5 hrs.
The target of data set [16] is Gamma-secretase (Homo sapiens) (UniProt Q96BI3+Q9NZ42+Q8WW43+P49768+Q92542+P49810). Put plainly: Selectivity ratio of IC50 for gamma-secretase-mediated notch processing in human SUP-T1 cells to IC50 for gamma-secretase-mediated amyloid beta-42 production. The class given is cell-based.
Data set [17] can be described thus: Dissociation constant, pKa of the compound. The class given is physicochemical.
A short description of data set [18]: Ratio of drug level in brain to plasma in CD1 mouse at 30 mg/kg, po. In kind it is ADME, organism-based. The following applies: read-out: BPR. Details: dose 30 mg/kg, route oral.
A short description of data set [19]: Drug level in CD1 mouse brain at 100 mg/kg, po after 6 hrs. In kind it is ADME, organism-based. Details: dose 100 mg/kg, route oral. As to conditions: read-out: Drug uptake.
Data set [20] can be described thus: Metabolic stability in CD1 mouse liver microsomes assessed as compound remaining at 1 uM after 60 mins in absence of NADPH. The following applies: read-out: Stability. The class given is ADME, Microsome. For orientation: Liver microsomes are vesicles of endoplasmic reticulum, rich in cytochrome P450 enzymes.
Data set [21] can be described thus: Drug level in CD1 mouse brain at 100 mg/kg, po after 2 hrs. The class given is ADME, organism-based. Further details: dose 100 mg/kg, route oral. The following applies: read-out: Drug uptake.
A short description of data set [22]: AUC in CD1 mouse at 30 mg/kg, po. The class given is ADME, organism-based. Further details: dose 30 mg/kg, route oral. The following applies: plasma.
The nature of data set [23]: Inhibition of gamma-secretase assessed as ratio of amyloid beta-40 to amyloid beta-42 production in diluted 2B7 conditioned media after 5 hrs.
Data set [24] can be described thus: Metabolic stability in CD1 mouse liver microsomes assessed as compound remaining at 1 uM after 60 mins in presence of NADPH. As to conditions: read-out: Stability. The class given is ADME, Microsome.
The nature of data set [25]: Inhibition of gamma-secretase-mediated amyloid beta-37 production in diluted 2B7 conditioned media after 5 hrs.
Data set [26] in a line: Plasma concentration in CD1 mouse at 30 mg/kg, po after 24 hrs. In kind it is ADME, organism-based. Further details: dose 30 mg/kg, route oral.
Data set [27] can be described thus: Plasma concentration in CD1 mouse at 30 mg/kg, po after 4 hrs. The class given is ADME, organism-based. Further details: dose 30 mg/kg, route oral.
Data set [28] in a line: Plasma concentration in CD1 mouse at 30 mg/kg, po after 6 hrs. Further details: dose 30 mg/kg, route oral. The class given is ADME, organism-based.
A short description of data set [29]: Drug level in CD1 mouse brain at 30 mg/kg, po after 24 hrs. The class given is ADME, organism-based. The following applies: read-out: Drug uptake. Details: dose 30 mg/kg, route oral.
A short description of data set [30]: Plasma concentration in CD1 mouse at 30 mg/kg, po after 8 hrs. Details: dose 30 mg/kg, route oral. In kind it is ADME, organism-based.
Data set [31] in a line: Inhibition of gamma-secretase-mediated total amyloid beta production in diluted 2B7 conditioned media after 5 hrs.
A short description of data set [32]: Drug level in CD1 mouse brain at 30 mg/kg, po after 4 hrs. In kind it is ADME, organism-based. Details: dose 30 mg/kg, route oral. The following applies: read-out: Drug uptake.
The nature of data set [33]: Drug level in CD1 mouse brain at 30 mg/kg, po after 8 hrs. In kind it is ADME, organism-based. Further details: dose 30 mg/kg, route oral. The following applies: read-out: Drug uptake.
A short description of data set [34]: Drug level in CD1 mouse brain at 30 mg/kg, po after 6 hrs. In kind it is ADME, organism-based. The following applies: read-out: Drug uptake. Further details: dose 30 mg/kg, route oral.
A short description of data set [35]: Inhibition of gamma-secretase-mediated amyloid beta-40 production in diluted 2B7 conditioned media at 4 uM after 5 hrs.

One may read the inhibition as the drop in the measured response relative to a control, in per cent. Read a high inhibition as strong suppression. A word on the IC50: it is the concentration that gives 50% inhibition. A higher IC50 goes with weaker potency in that assay. What is called bioavailability is dose-corrected exposure relative to a reference, in per cent. Read a low bioavailability as poor availability. As usually defined, the half-life is the time needed for the level to fall by half in the phase considered. Read a high half-life as slow decline. For orientation: Vd means a proportionality between amount in the body and measured concentration, not a real space. Higher therefore signals wide distribution into tissue. Broadly, the clearance is a measure of how efficiently the substance is removed, as volume per time. Higher therefore signals efficient removal. In general, pKa refers to the negative logarithm of the acid dissociation constant. Lower therefore signals a stronger acid or weaker base. In general, AUC refers to concentration integrated over time. A low value points to low exposure.

Some results are limits rather than exact numbers.

In turn, `CC(=O)O[C@@H]([C@H]1C[C@@H](C)[C@H]2[C@H](O1)[C@H](O)[C@@]1(C)[C@@H]3CC[C@H]4C(C)(C)[C@@H](O[C@H]5CN(CCN(C)C)CCO5)CC[C@@]45C[C@@]35CC[C@]21C)C(C)(C)O` came in with an inhibition in [1] of 29%. In data set [2], this molecule came in with a 50% inhibitory concentration (IC50) of 90 nM.
For the molecule `CC(=O)O[C@@H]([C@H]1C[C@@H](C)[C@H]2[C@H](O1)[C@H](O)[C@@]1(C)[C@@H]3CC[C@H]4C(C)(C)[C@@H](O[C@@H]5OC[C@@H](O)[C@H](O)[C@H]5O)CC[C@@]45C[C@@]35CC[C@]21C)C(C)(C)O`, the figures for the IC50 in data set [3], in [4] and in [2] were 1000 nM, 84 nM and 60 nM, respectively.
On to `CC(=O)O[C@@H]([C@H]1C[C@@H](C)[C@H]2[C@H](O1)[C@H](O)[C@@]1(C)[C@@H]3CC[C@H]4C(C)(C)[C@@H](O[C@H]5CN(C6COC6)CCO5)CC[C@@]45C[C@@]35CC[C@]21C)C(C)(C)O`, for which the inhibition is 44% in data set [5] and 41% in [15]. In addition, the concentration at 4 h in data set [6] was found to be 185 ng/g; in data set [11] it was 420 ng/mL. Also, the IC50 in [3] is 14100 nM; in data set [4], 300 nM; at Gamma-secretase, over 20000 nM; in data set [2], 170 nM. Besides, the bioavailability in data set [7] was 11%. Moreover, the figures for the half-life in [8] and in [9] were 0.3 h and 2.3 h, respectively. The results for the concentration at 2 h in data set [10] and in [21] were 279 ng/mL and 103 ng/g, respectively. This molecule returned a Vd in [12] of 0.6 L/kg. Besides, the concentration at 6 h in data set [13] is 453 ng/mL; in [19] it was 163 ng/g. The molecule further had a clearance in data set [14] of 55 mL/min/kg. The Ratio IC50 in [16] was over 70. Also, the pKa in [17] stood at 4.6. The Kp in [18] is 0.23. The remaining at 1 h, 1 µM in data set [20] and in [24] was 1% in each case. The same molecule yielded an AUC in data set [22] of 1010 ng·h/mL. The Ratio in data set [23] amounted to 52.
In [1], `CC(=O)O[C@@H]([C@H]1C[C@@H](C)[C@H]2[C@H](O1)[C@H](O)[C@@]1(C)[C@@H]3CC[C@H]4C(C)(C)[C@@H](O[C@H]5CN(CCN6CCCC6)CCO5)CC[C@@]45C[C@@]35CC[C@]21C)C(C)(C)O` gave an inhibition of 34%. Also, the 50% inhibitory concentration (IC50) in data set [2] amounted to 110 nM.
For the molecule `CC(=O)O[C@@H]([C@H]1C[C@@H](C)C2=C(O1)[C@H](O)[C@@]1(C)[C@@H]3CC[C@H]4C(C)(C)[C@@H](O[C@@H]5OC[C@@H](O)[C@H](O)[C@H]5O)CC[C@@]45C[C@@]35CC[C@]21C)C(C)(C)O`, the concentration for half-maximal inhibition (IC50) is 39 nM in data set [25], 2700 nM in data set [3], 61 nM in data set [4] and 100 nM in [2].
As for `CC(=O)O[C@@H]([C@H]1C[C@@H](C)[C@H]2[C@H](O1)[C@H](O)[C@@]1(C)[C@@H]3CC[C@H]4C(C)(C)[C@@H](O[C@H]5CNCCO5)CC[C@@]45C[C@@]35CC[C@]21C)C(C)(C)O`, the concentration at 24 h came out at 31 ng/mL in data set [26] and 116 ng/g in data set [29]. In addition, the concentration at 4 h in [27] stood at 1140 ng/mL; in data set [32], 1340 ng/g. The concentration at 6 h in data set [28] amounted to 840 ng/mL; in data set [34] it was 1630 ng/g. Further, the IC50 was 1400 nM in [3]; 2400 nM in data set [31]; 80 nM in data set [4]; over 4000 nM on Gamma-secretase; 55 nM in [2]. The molecule also had a bioavailability in [7] of 37%. In addition, the values for the half-life in data set [8] and in data set [9] were 6.5 h and 3 h, respectively. In addition, the figures for the concentration at 8 h in data set [30] and in [33] were 857 ng/mL and 2260 ng/g, respectively. Also, in data set [12], the distribution volume (Vd) worked out at 12.1 L/kg. Moreover, the clearance in [14] is 51.7 mL/min/kg. The Ratio IC50 in data set [16] was over 70. Besides, in data set [17], the pKa is 7.7. Further, the Kp in data set [18] is 1.7. Further, the remaining at 1 h, 1 µM worked out at 20% in [20] and 25% in data set [24]. The molecule also returned an AUC in data set [22] of 3620 ng·h/mL. Moreover, in [23], the Ratio is 25.
For the molecule `CC(=O)O[C@@H]([C@H]1C[C@@H](C)[C@H]2[C@H](O1)[C@H](O)[C@@]1(C)[C@@H]3CC[C@H]4C(C)(C)[C@@H](O[C@H]5CN(CCN6CCOCC6)CCO5)CC[C@@]45C[C@@]35CC[C@]21C)C(C)(C)O`, in data set [35], the inhibition stood at 49%. Besides, in data set [2], inhibition was half-maximal at 160 nM (IC50).
The molecule `CC(=O)O[C@@H]([C@H]1C[C@@H](C)[C@H]2[C@H](O1)[C@H](O)[C@@]1(C)[C@@H]3CC[C@H]4C(C)(C)[C@@H](O[C@H]5CN(Cc6ncc[nH]6)CCO5)CC[C@@]45C[C@@]35CC[C@]21C)C(C)(C)O` returned an inhibition in data set [35] of 38%. Moreover, the IC50 in [2] was determined as 120 nM.
